Assay results taken from PubChem BioAssay (NCI).
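In this assay, cells in 96-well plates receive the compound at five concentrations for 48 hours. Endpoints are linearly interpolated between the surrounding concentrations. The concentration for 50% growth inhibition is given as GI50. TGI denotes the concentration required for complete inhibition of growth.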

Tests used:
Experiment in all cases: DTP human tumour cell line panel, 48 h
T-47D breast = system: T-47D breast
IGROV1 ovarian = system: IGROV1 ovarian
LOX IMVI melanoma = system: LOX IMVI melanoma
OVCAR-8 ovarian = system: OVCAR-8 ovarian
SN12C renal = system: SN12C renal
A549 NSCLC = system: A549 NSCLC
OVCAR-3 ovarian = system: OVCAR-3 ovarian
SF-295 CNS = system: SF-295 CNS
NCI-H522 lung = system: NCI-H522 lung
HT29 colon = system: HT29 colon
A498 renal = system: A498 renal
SF-539 CNS = system: SF-539 CNS
KM12 colon = system: KM12 colon
TK-10 renal = system: TK-10 renal
RPMI-8226 leukemia = system: RPMI-8226 leukemia
U251 CNS = system: U251 CNS
HCT-15 colon = system: HCT-15 colon
PC-3 prostate = system: PC-3 prostate
SNB-75 CNS = system: SNB-75 CNS
EKVX NSCLC = system: EKVX NSCLC
BT-549 breast = system: BT-549 breast
MOLT-4 leukemia = system: MOLT-4 leukemia
UO-31 renal = system: UO-31 renal
NCI-H23 lung = system: NCI-H23 lung
SK-OV-3 ovarian = system: SK-OV-3 ovarian
NCI-H226 lung = system: NCI-H226 lung
MDA-MB-231 breast = system: MDA-MB-231 breast
SF-268 CNS = system: SF-268 CNS
RXF 393 renal = system: RXF 393 renal

Structure (SMILES): COC(=O)c1oc2c(C(=O)/C=C/c3ccc(OC)cc3)c(OCCN3CCOCC3)ccc2c1C
- GI50 (T-47D breast): 1510 nM
- TGI (T-47D breast): 6830 nM
- GI50 (IGROV1 ovarian): 1850 nM
- TGI (IGROV1 ovarian): 4550 nM
- GI50 (LOX IMVI melanoma): 1400 nM
- TGI (LOX IMVI melanoma): 2790 nM
- GI50 (OVCAR-8 ovarian): 1800 nM
- TGI (OVCAR-8 ovarian): 4700 nM
- GI50 (SN12C renal): 1780 nM
- TGI (SN12C renal): 5910 nM
- GI50 (A549 NSCLC): 2220 nM
- TGI (A549 NSCLC): 6070 nM
- GI50 (OVCAR-3 ovarian): 1890 nM
- TGI (OVCAR-3 ovarian): 5690 nM
- GI50 (SF-295 CNS): 1850 nM
- TGI (SF-295 CNS): 5200 nM
- GI50 (NCI-H522 lung): 1610 nM
- TGI (NCI-H522 lung): 3540 nM
- GI50 (HT29 colon): 1940 nM
- TGI (HT29 colon): 4480 nM
- GI50 (A498 renal): 2040 nM
- TGI (A498 renal): 4690 nM
- GI50 (SF-539 CNS): 1640 nM
- TGI (SF-539 CNS): 4100 nM
- GI50 (KM12 colon): 1770 nM
- TGI (KM12 colon): 3780 nM
- GI50 (TK-10 renal): 3310 nM
- TGI (TK-10 renal): 11900 nM
- GI50 (RPMI-8226 leukemia): 1570 nM
- TGI (RPMI-8226 leukemia): 4200 nM
- GI50 (U251 CNS): 1400 nM
- TGI (U251 CNS): 2740 nM
- GI50 (HCT-15 colon): 1460 nM
- TGI (HCT-15 colon): 3120 nM
- GI50 (PC-3 prostate): 1840 nM
- TGI (PC-3 prostate): 6880 nM
- GI50 (SNB-75 CNS): 1830 nM
- TGI (SNB-75 CNS): 6770 nM
- GI50 (EKVX NSCLC): 1870 nM
- TGI (EKVX NSCLC): 7490 nM
- GI50 (BT-549 breast): 2420 nM
- TGI (BT-549 breast): 7910 nM
- GI50 (MOLT-4 leukemia): 1240 nM
- TGI (MOLT-4 leukemia): 3720 nM
- GI50 (UO-31 renal): 1890 nM
- TGI (UO-31 renal): 5250 nM
- GI50 (NCI-H23 lung): 1910 nM
- TGI (NCI-H23 lung): 5460 nM
- GI50 (SK-OV-3 ovarian): 2920 nM
- TGI (SK-OV-3 ovarian): 8610 nM
- GI50 (NCI-H226 lung): 1590 nM
- TGI (NCI-H226 lung): 3510 nM
- GI50 (MDA-MB-231 breast): 1640 nM
- TGI (MDA-MB-231 breast): 5180 nM
- GI50 (SF-268 CNS): 2050 nM
- TGI (SF-268 CNS): 5760 nM
- GI50 (RXF 393 renal): 48.7 nM
- TGI (RXF 393 renal): 493 nM
